Experimental data from ChEMBL document CHEMBL3286339, “Synthesis and in vivo SAR study of indolin-2-one-based multi-targeted inhibitors as potential anticancer agents” (Eur J Med Chem, 2014).
Activity calls are given as the source filed them. The calls are words filed in the database; no cut-off is given here.

What was measured:
[1] = system: Aorta; assay: Antiangiogenic activity in Sprague-Dawley rat aortic ring at 0.2 ug/ml after 6 days by inverted microscopic analysis; type: functional, tissue-based
[2] = system: Aorta; assay: Inhibition of micrangium generation in Sprague-Dawley rat aortic ring at 0.2 ug/ml after 6 days by inverted microscopic analysis; type: functional, tissue-based
[3] = system: HT-29; assay: Antitumor activity against human HT-29 cells xenografted in BALB/c nude mouse assessed as tumor growth inhibition at 80 mg/kg/day administered qd measured up to day 21 relative to control; type: functional
[4] = system: Mus musculus; assay: Toxicity in BALB/c nude mouse xenografted with human HT-29 cells assessed as weakness at 80 mg/kg/day administered qd; type: organism-based; conditions: in vivo
[5] = system: Mus musculus; assay: Toxicity in BALB/c nude mouse xenografted with human HT-29 cells assessed as lethargic behavior at 80 mg/kg/day administered qd; type: organism-based; conditions: in vivo
[6] = system: Mus musculus; assay: Toxicity in BALB/c nude mouse xenografted with human HT-29 cells assessed as development of diarrhea at 80 mg/kg/day administered qd; type: organism-based; conditions: in vivo
[7] = system: Mus musculus; assay: Toxicity in BALB/c nude mouse xenografted with human HT-29 cells assessed as severe weight loss at 80 mg/kg/day administered qd measured after 6 days; type: organism-based; conditions: in vivo, 144 h
[8] = system: Mus musculus; assay: Toxicity in BALB/c nude mouse xenografted with human HT-29 cells assessed as mortality at 80 mg/kg/day administered qd measured after 6 days; type: organism-based; conditions: in vivo, 144 h
[9] = system: Mus musculus; assay: Toxicity in BALB/c nude mouse xenografted with human HT-29 cells assessed as hematuria at 80 mg/kg/day administered qd measured up to day 21; type: organism-based; conditions: in vivo
[10] = system: Mus musculus; assay: Toxicity in BALB/c nude mouse xenografted with human HT-29 cells assessed as bloody stool at 80 mg/kg/day administered qd measured up to day 21; type: organism-based; conditions: in vivo
[11] = system: Mus musculus; assay: Toxicity in BALB/c nude mouse xenografted with human HT-29 cells assessed as weight loss at 80 mg/kg/day administered qd measured up to day 21; type: organism-based; conditions: in vivo
[12] = system: Mus musculus; assay: Toxicity in BALB/c nude mouse xenografted with human NCI-H460 cells assessed as hematuria at 40 mg/kg/day administered qd; type: organism-based; conditions: in vivo
[13] = system: Mus musculus; assay: Toxicity in BALB/c nude mouse xenografted with human NCI-H460 cells assessed as bloody stool at 40 mg/kg/day administered qd; type: organism-based; conditions: in vivo
[14] = system: Mus musculus; assay: Toxicity in BALB/c nude mouse xenografted with human NCI-H460 cells assessed as severe weight loss at 40 mg/kg/day administered qd; type: organism-based; conditions: in vivo
[15] = system: NCI-H460; assay: Antitumor activity against human NCI-H460 cells xenografted in BALB/c nude mouse assessed as tumor growth inhibition at 40 mg/kg/day administered qd measured up to day 21 relative to control; type: functional
[16] = system: Mus musculus; assay: Toxicity in BALB/c nude mouse xenografted with human HT-29 cells assessed as severe weight loss at 80 mg/kg/day administered qd measured after 9 days; type: organism-based; conditions: in vivo, 216 h
[17] = system: Mus musculus; assay: Toxicity in BALB/c nude mouse xenografted with human HT-29 cells assessed as mortality at 80 mg/kg/day administered qd measured on day 15; type: organism-based; conditions: in vivo
[18] = system: Mus musculus; assay: Toxicity in BALB/c nude mouse xenografted with human HT-29 cells assessed as severe weight loss at 80 mg/kg/day administered qd; type: organism-based; conditions: in vivo
[19] = system: Mus musculus; assay: Toxicity in BALB/c nude mouse xenografted with human HT-29 cells assessed as severe weight loss at 80 mg/kg/day administered qd measured after 3 days; type: organism-based; conditions: in vivo, 72 h
[20] = system: Mus musculus; assay: Toxicity in BALB/c nude mouse xenografted with human HT-29 cells assessed as mortality at 80 mg/kg/day administered qd measured on day 12; type: organism-based; conditions: in vivo

With `Cc1[nH]c(/C=C2\C(=O)Nc3ccc(F)cc32)c(C)c1C(=O)N1CCN(CCO)CC1` the inhibition [1] was “Active”, the inhibition [2] was “Active” and the Activity [3] was “inactive”.

For `Cc1[nH]c(/C=C2\C(=O)Nc3ccc(F)cc32)c(C)c1C(=O)N1CCC(N(C)C)CC1`, the inhibition [1] was “Active”, the inhibition [2] was “Active” and the Activity [3] was “Active”. The Activity [4] was “Toxic”, the Activity [5] was “Toxic” and the Activity [6] was “Toxic”. For the same compound, the Activity [7] was “Toxic” and the Activity [8] was “Toxic”.

With `Cc1[nH]c(/C=C2\C(=O)Nc3ccc(F)cc32)c(C)c1C(=O)N1CCN(C)CC1` the Activity [9] was “Non-toxic”, the Activity [10] was “Non-toxic” and the Activity [11] was “Non-toxic”. For the same compound, the inhibition [1] was “Active”, the inhibition [2] was “Active” and the Activity [3] was “Active”.

`Cc1[nH]c(/C=C2\C(=O)Nc3ccc(F)cc32)c(C)c1NC(=O)CCN(C)C` was tested, and the inhibition [1] was “Active”, the inhibition [2] was “Active” and the Activity [3] was “Active”.

With `Cc1[nH]c(/C=C2\C(=O)Nc3ccc(F)cc32)c(C)c1NC(=O)CCN1CCCC1` the Activity [12] was “Non-toxic”, the Activity [13] was “Non-toxic” and the Activity [14] was “Non-toxic”. For the same compound, the inhibition [1] was “Active”, the inhibition [2] was “Active” and the TGI [15] was “Active”.

For `CCN(CC)C1CCN(C(=O)c2c(C)[nH]c(/C=C3\C(=O)Nc4ccc(F)cc43)c2C)CC1`, the Activity [16] was “Toxic”, the Activity [17] was “Toxic” and the inhibition [1] was “Active”. For the same compound, the inhibition [2] was “Active”, the Activity [3] was “Active” and the Activity [4] was “Toxic”. For the same compound, the Activity [5] was “Toxic”, the Activity [6] was “Toxic” and the Activity [7] was “Toxic”.

In the case of `Cc1[nH]c(/C=C2\C(=O)Nc3ccc(F)cc32)c(C)c1NC(=O)CCCN(C)C`, the inhibition [1] is reported as “Active”, the inhibition [2] is reported as “Active” and the Activity [3] is reported as “Active”.

With `CCN(CC)CCC(=O)Nc1c(C)[nH]c(/C=C2\C(=O)Nc3ccc(Br)cc32)c1C` the Activity [18] was “Toxic”, the inhibition [1] was “Active” and the inhibition [2] was “Active”. For the same compound, the Activity [3] was “Active”.

With `CCN(CC)CCC(=O)Nc1c(C)[nH]c(/C=C2\C(=O)Nc3ccc(Cl)cc32)c1C` the Activity [19] was “Toxic”, the Activity [20] was “Toxic” and the inhibition [1] was “Active”. The inhibition [2] was “Active”.
